These results are taken from BindingDB's records for doi:10.1016/j.bmcl.2005.11.096 (Glaxosmithkline, 2006).

This test can be described thus: Agonist activity as induced proliferation in Ba/F3-hTpoR murine lymphocyte expressing human TPOR.
By EC50 is commonly meant the concentration needed to bring the measured effect to its halfway point. The low end stands for an effect from little substance, the high end for a need for much substance. `CC(C)(C)c1ccc(-c2cccc(-c3nc4ccc(CC(C(=O)O)C(=O)O)cc4[nH]3)n2)cc1` [2-((2-(6-(4-tert-butylphenyl)pyridin-2-yl)-1H-benzo[d]imidazol-5-yl)methyl)malonic acid] came in with an EC50 of 10000 nM.
As for `CC(=Cc1ccc2nc(-c3cccc(-c4ccc(C(C)(C)C)cc4)n3)[nH]c2c1)C(=O)O` [3-(2-(6-(4-tert-butylphenyl)pyridin-2-yl)-1H-benzo[d]imidazol-5-yl)-2-methylacrylic acid], the figure is 4500 nM; as for `Cc1ccc(-c2csc(-c3nc4ccc(C=C5SC(S)=NC5=O)cc4[nH]3)c2)cc1C` [5-((2-(4-(3,4-dimethylphenyl)thiophen-2-yl)-1H-benzo[d]imidazol-5-yl)methylene)-2-thioxothiazolidin-4-one], 780 nM; as for `Cc1ccc(-c2ccc(-c3nc4ccc(C=C5SC(S)=NC5=O)cc4[nH]3)s2)cc1C` [5-((2-(5-(3,4-dimethylphenyl)thiophen-2-yl)-1H-benzo[d]imidazol-5-yl)methylene)-2-thioxothiazolidin-4-one], 1750 nM.
Regarding `CC(C)(C)c1ccc(-c2ccc(-c3nc4ccc(C=C5SC(=S)NC5=O)cc4[nH]3)o2)cc1` [5-((2-(5-(4-tert-butylphenyl)furan-2-yl)-1H-benzo[d]imidazol-5-yl)methylene)-2-thioxothiazolidin-4-one], the midpoint of the response, the EC50, lay at 720 nM.
Regarding `Cc1ccc(-c2cccc(-c3nc4ccc(C=C5SC(S)=NC5=O)cc4[nH]3)n2)cc1C` [5-((2-(6-(3,4-dimethylphenyl)pyridin-2-yl)-1H-benzo[d]imidazol-5-yl)methylene)-2-thioxothiazolidin-4-one], the EC50 was 1600 nM.
`CC(C)(C)c1ccc(-c2cccc(-c3nc4ccc(C=C5SC(S)=NC5=O)cc4[nH]3)n2)cc1` [5-((2-(6-(4-tert-butylphenyl)pyridin-2-yl)-1H-benzo[d]imidazol-5-yl)methylene)-2-thioxothiazolidin-4-one] yielded an EC50 of 2000 nM. The EC50 values of the last two molecules are within 1.5-fold of each other.
Consider `CC(C)(C)c1ccc(-c2cccc(-c3nc4ccc(C=C5SC(=S)NC5=O)cc4[nH]3)c2)cc1` [5-[1-[2-(4'-tert-Butyl-biphenyl-3-yl)-1H-benzoimidazol-5-yl]-methylidene]-2-thioxo-thiazolidin-4-one], for which a half-maximal effect (EC50) was put at 900 nM.
